Experiments:
[1] = system: Puccinia recondita f. Sp. Tritici; assay: Puccinia recondita f. sp. tritici / wheat / leaf disc preventative (brown rust); assay type: in vivo; details: foliar, 200 ppm in the applied formulation, wheat leaf segments cv. Kanzler, inoculated 1 day after application, vs untreated, 7 to 9 days after application, read-out: disease control
In short: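 Segments of cv. Kanzler wheat on agar received a spray of compound formulation diluted in water and were inoculated with spores one day afterwards. Kept at 19° C and 75% rh under 12 h/12 h light; disease control relative to untreated checks rated at 7–9 days post-application.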

[2] = system: Puccinia recondita f. Sp. Tritici; assay: Puccinia recondita f. sp. tritici / wheat / leaf disc curative (brown rust); assay type: in vivo; details: foliar, 200 ppm in the applied formulation, wheat leaf segments cv. Kanzler, compound applied 1 day after inoculation, vs untreated, 6 to 8 days after application, read-out: disease control
Method: (§1) Leaf disks or leaf segments of various plant species are cut from plants grown in a greenhouse. The cut leaf disks or segments are placed in multiwell plates (24-well format) onto water agar. The leaf disks are sprayed with a test solution before (preventative) or after (curative) inoculation. Compounds to be tested are prepared as DMSO solutions (max. 10 mg/ml) which are diluted to the appropriate concentration with 0.025% Tween20 just before spraying. The inoculated leaf disks or segments are incubated under defined conditions (temperature, relative humidity, light, etc.) according to the respective test system. A single evaluation of disease level is carried out 3 to 14 days after inoculation, depending on the pathosystem. Percent disease control relative to the untreated check leaf disks or segments is then calculated.
Example 2: Fungicidal Activity Against Puccinia recondita f. sp. tritici/Wheat/Leaf Disc Curative (Brown Rust)
Wheat leaf segments cv. Kanzler are placed on agar in multiwell plates (24-well format). The leaf segments are then inoculated with a spore suspension of the fungus. Plates were stored in darkness at 19° C. and 75% relative humidity. The Formulated test compound diluted in water was applied 1 day after inoculation. The leaf segments were incubated at 19° C. and 75% relative humidity under a light regime of 12 hours light/12 hours darkness in a climate cabinet and the activity of a compound was assessed as percent disease control compared to untreated when an appropriate level of disease damage appears in untreated check leaf segments (6 to 8 days after application).
(§2) The following compounds at 200 ppm in the applied Formulation give at least 80% disease control in this test when compared to untreated control leaf disks under the same conditions, which show extensive disease development.

Phakopsora pachyrhizi = Phakopsora pachyrhizi / soybean / leaf disc preventative (Asian soybean rust); assay type: in vivo; details: foliar, 200 ppm in the applied formulation, soybean leaf disks, inoculated one day after application, vs untreated, 12 to 14 days after application, read-out: disease control
Method: as §1
Example 3: Fungicidal Activity Against Phakopsora pachyrhizi/Soybean/Leaf Disc Preventative (Asian Soybean Rust)
Soybean leaf disks are placed on water agar in multiwell plates (24-well format) and sprayed with the Formulated test compound diluted in water. One day after application leaf discs are inoculated by spraying a spore suspension on the lower leaf surface. After an incubation period in a climate cabinet of 24-36 hours in darkness at 20° C. and 75% rh leaf disc are kept at 20° C. with 12 h light/day and 75% rh. The activity of a compound is assessed as percent disease control compared to untreated when an appropriate level of disease damage appears in untreated check leaf disks (12 to 14 days after application).
as §2

[3] = system: Glomerella lacenarium (Colletotrichum lacenarium); assay: Glomerella lacenarium (Colletotrichum lacenarium) liquid culture / cucumber / preventative (anthracnose); assay type: cell-based; details: 20 ppm, liquid culture in PDB, 24° C., inhibition of growth measured photometrically 3 to 4 days after application, vs untreated, read-out: disease control
In short: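 Cryopreserved conidia in potato dextrose broth were added to test compound in a 96-well microtiter plate and incubated at 24 °C. Growth inhibition read photometrically 3–4 days after application, as percent activity versus untreated check.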

O=C(CSc1ccccc1)Nc1ccc(-c2noc(C(F)(F)F)n2)nc1 [Compound 1.55, 2-phenylsulfanyl-N-[6-[5-(trifluoromethyl)-1,2,4-oxadiazol-3-yl]-3-pyridyl]acetamide]
≥ 80%: pest or weed control at 200 ppm [1] | pest or weed control at 200 ppm [2] | pest or weed control at 200 ppm (Phakopsora pachyrhizi) | inhibition of growth at 20 ppm [3]

COC(=O)C(C)(C)CC(=O)Nc1ccc(-c2noc(C(F)(F)F)n2)cc1 [Compound 1.73, methyl 2,2-dimethyl-4-oxo-4-[4-[5-(trifluoromethyl)-1,2,4-oxadiazol-3-yl]anilino]butanoate]
≥ 80%: pest or weed control at 200 ppm [1] | pest or weed control at 200 ppm [2] | pest or weed control at 200 ppm (Phakopsora pachyrhizi) | inhibition of growth at 20 ppm [3]

CC(C)C(=O)Nc1ccc(-c2noc(C(F)(F)F)n2)cc1 [Compound 1.74, 2-methyl-N-[4-[5-(trifluoromethyl)-1,2,4-oxadiazol-3-yl]phenyl] propanamide]
≥ 80%: pest or weed control at 200 ppm [1] | pest or weed control at 200 ppm [2] | pest or weed control at 200 ppm (Phakopsora pachyrhizi) | inhibition of growth at 20 ppm [3]

CCC(C)C(=O)Nc1ccc(-c2noc(C(F)(F)F)n2)cc1 (stereo not shown) [Compound 1.99, 2-methyl-N-[4-[5-(trifluoromethyl)-1,2,4-oxadiazol-3-yl]phenyl]butanamide]
≥ 80%: pest or weed control at 200 ppm [1] | pest or weed control at 200 ppm [2] | pest or weed control at 200 ppm (Phakopsora pachyrhizi) | inhibition of growth at 20 ppm [3]

CC1(C(=O)Nc2ccc(-c3noc(C(F)(F)F)n3)cc2)COC1 [Compound 1.102, 3-methyl-N-[4-[5-(trifluoromethyl)-1,2,4-oxadiazol-3-yl]phenyl]oxetane-3-carboxamide]
≥ 80%: pest or weed control at 200 ppm [1] | pest or weed control at 200 ppm [2] | pest or weed control at 200 ppm (Phakopsora pachyrhizi) | inhibition of growth at 20 ppm [3]

O=C(Nc1ccc(-c2noc(C(F)(F)F)n2)cc1)C1CC1F (stereo not shown) [Compound 1.111, 2-fluoro-N-[4-[5-(trifluoromethyl)-1,2,4-oxadiazol-3-yl]phenyl]cyclo-propanecarboxamide]
≥ 80%: pest or weed control at 200 ppm [1] | pest or weed control at 200 ppm [2] | pest or weed control at 200 ppm (Phakopsora pachyrhizi) | inhibition of growth at 20 ppm [3]

COC(C)C(=O)Nc1ccc(-c2noc(C(F)(F)F)n2)cc1 (stereo not shown) [Compound 1.112, 2-methoxy-N-[4-[5-(trifluoromethyl)-1,2,4-oxadiazol-3-yl]phenyl] propanamide]
≥ 80%: pest or weed control at 200 ppm [1] | pest or weed control at 200 ppm [2] | pest or weed control at 200 ppm (Phakopsora pachyrhizi) | inhibition of growth at 20 ppm [3]

O=C(Nc1ccc(-c2noc(C(F)(F)F)n2)cc1)C1(F)CC1 [Compound 1.123, 1-fluoro-N-[4-[5-(trifluoromethyl)-1,2,4-oxadiazol-3-yl]phenyl]cyclo-propanecarboxamide]
≥ 80%: pest or weed control at 200 ppm [1] | pest or weed control at 200 ppm [2] | pest or weed control at 200 ppm (Phakopsora pachyrhizi) | inhibition of growth at 20 ppm [3]

CN(C(=O)C1CC1)c1ccc(-c2noc(C(F)(F)F)n2)cc1 [Compound 1.128, N-methyl-N-[4-[5-(trifluoromethyl)-1,2,4-oxadiazol-3-yl]phenyl]cyclo-propanecarboxamide]
≥ 80%: pest or weed control at 200 ppm [1] | pest or weed control at 200 ppm [2] | pest or weed control at 200 ppm (Phakopsora pachyrhizi) | inhibition of growth at 20 ppm [3]

COCCC(=O)N(C)c1ccc(-c2noc(C(F)(F)F)n2)cc1 [Compound 1.136, 3-methoxy-N-methyl-N-[4-[5-(trifluoromethyl)-1,2,4-oxadiazol-3-yl]phenyl] propanamide]
≥ 80%: pest or weed control at 200 ppm [2] | pest or weed control at 200 ppm (Phakopsora pachyrhizi) | inhibition of growth at 20 ppm [3]

CN(C(=O)C1(C)COC1)c1ccc(-c2noc(C(F)(F)F)n2)cc1 [Compound 1.139, N,3-dimethyl-N-[4-[5-(trifluoromethyl)-1,2,4-oxadiazol-3-yl]phenyl]oxetane-3-carboxamide]
≥ 80%: pest or weed control at 200 ppm [1] | pest or weed control at 200 ppm [2] | pest or weed control at 200 ppm (Phakopsora pachyrhizi) | inhibition of growth at 20 ppm [3]

COCCCC(=O)N(C)c1ccc(-c2noc(C(F)(F)F)n2)cc1 [Compound 1.140, 4-methoxy-N-methyl-N-[4-[5-(trifluoromethyl)-1,2,4-oxadiazol-3-yl]phenyl]butanamide]
≥ 80%: pest or weed control at 200 ppm [2] | pest or weed control at 200 ppm (Phakopsora pachyrhizi) | inhibition of growth at 20 ppm [3]

CN(C(=O)C1CCCO1)c1ccc(-c2noc(C(F)(F)F)n2)cc1 (stereo not shown) [Compound 1.141, N-methyl-N-[4-[5-(trifluoromethyl)-1,2,4-oxadiazol-3-yl]phenyl] tetrahydrofuran-2-carboxamide]
≥ 80%: pest or weed control at 200 ppm [1] | pest or weed control at 200 ppm [2] | pest or weed control at 200 ppm (Phakopsora pachyrhizi) | inhibition of growth at 20 ppm [3]

CN(C(=O)C1(C#N)CC1)c1ccc(-c2noc(C(F)(F)F)n2)cc1 [Compound 1.142, 1-cyano-N-methyl-N-[4-[5-(trifluoromethyl)-1,2,4-oxadiazol-3-yl]phenyl]cyclo-propanecarboxamide]
≥ 80%: pest or weed control at 200 ppm [1] | pest or weed control at 200 ppm [2] | pest or weed control at 200 ppm (Phakopsora pachyrhizi) | inhibition of growth at 20 ppm [3]

COC(C)C(=O)N(C)c1ccc(-c2noc(C(F)(F)F)n2)cc1 (stereo not shown) [Compound 1.143, 2-methoxy-N-methyl-N-[4-[5-(trifluoromethyl)-1,2,4-oxadiazol-3-yl]phenyl] propanamide]
≥ 80%: pest or weed control at 200 ppm [1] | pest or weed control at 200 ppm [2] | pest or weed control at 200 ppm (Phakopsora pachyrhizi) | inhibition of growth at 20 ppm [3]

C#CCCC(=O)Nc1ccc(-c2noc(C(F)(F)F)n2)cc1 [Compound 2.4, N-[4-[5-(trifluoromethyl)-1,2,4-oxadiazol-3-yl]phenyi]pent-4-ynamide]
≥ 80%: pest or weed control at 200 ppm [1] | pest or weed control at 200 ppm [2] | pest or weed control at 200 ppm (Phakopsora pachyrhizi) | inhibition of growth at 20 ppm [3]

CCCC(=O)Nc1ccc(-c2noc(C(F)(F)F)n2)cc1 [Compound 2.5, N-[4-[5-(trifluoromethyl)-1,2,4-oxadiazol-3-yl]phenyl] butanamide]
≥ 80%: pest or weed control at 200 ppm [1] | pest or weed control at 200 ppm [2] | pest or weed control at 200 ppm (Phakopsora pachyrhizi) | inhibition of growth at 20 ppm [3]

O=C(Nc1ccc(-c2noc(C(F)(F)F)n2)cc1)C1CC=CC1 [Compound 2.7, N-[4-[5-(trifluoromethyl)-1,2,4-oxadiazol-3-yl]phenyl]cyclopent-3-ene-1-carboxamide]
≥ 80%: pest or weed control at 200 ppm [1] | pest or weed control at 200 ppm [2] | pest or weed control at 200 ppm (Phakopsora pachyrhizi) | inhibition of growth at 20 ppm [3]

N#CCC(=O)Nc1ccc(-c2noc(C(F)(F)F)n2)cc1 [Compound 2.13, 2-cyano-N-[4-[5-(trifluoromethyl)-1,2,4-oxadiazol-3-yl]phenyl] acetamide]
≥ 80%: pest or weed control at 200 ppm [1] | pest or weed control at 200 ppm [2] | pest or weed control at 200 ppm (Phakopsora pachyrhizi) | inhibition of growth at 20 ppm [3]

COCCCC(=O)Nc1ccc(-c2noc(C(F)(F)F)n2)cc1 [Compound 2.16, 4-methoxy-N-[4-[5-(trifluoromethyl)-1,2,4-oxadiazol-3-yl]phenyl] butanamide]
≥ 80%: pest or weed control at 200 ppm [1] | pest or weed control at 200 ppm [2] | pest or weed control at 200 ppm (Phakopsora pachyrhizi) | inhibition of growth at 20 ppm [3]

CN(C(=O)c1ccccc1)c1ccc(-c2noc(C(F)(F)F)n2)cc1 [Compound 2.20, N-methyl-N-[4-[5-(trifluoromethyl)-1,2,4-oxadiazol-3-yl]phenyl]benzamide]
≥ 80%: pest or weed control at 200 ppm [1] | pest or weed control at 200 ppm [2] | pest or weed control at 200 ppm (Phakopsora pachyrhizi) | inhibition of growth at 20 ppm [3]

CON(C(=O)C1CC1)c1ccc(-c2noc(C(F)(F)F)n2)cc1 [Compound 2.27, N-methoxy-N-[4-[5-(trifluoromethyl)-1,2,4-oxadiazol-3-yl]phenyl] cyclopropane-carboxamide]
≥ 80%: pest or weed control at 200 ppm [2] | pest or weed control at 200 ppm (Phakopsora pachyrhizi) | inhibition of growth at 20 ppm [3]

— patent US20200022370A1, “MICROBIOCIDAL OXADIAZOLE DERIVATIVES” (SYNGENTA PARTICIPATIONS AG, priority 2016, published 2020)
